According to patent US20120190615A1, “METHODS AND COMPOSITIONS FOR INDUCING WEIGHT LOSS” (Sanford-Burnham Medical Research Institute, priority 2011, published 2012):

Experiments:
C3H10T1/2 cells = assay: Oxygen consumption / uncoupled respiration of cultured mesenchymal stem cells; type: cell-based, mouse
Text: To determine whether the increased respiration was uncoupled from ATP synthesis, oligomycin-insensitive respiration was first assayed as a measure of uncoupled respiration. Oligomycin inhibits F1 ATP synthetase to suppress only oxidative phosphorylation-associated respiration.

HIB1 cells = assay: Differentiation of HIB1 brown preadipocytes (lipid accumulation, mitochondrial biogenesis); type: cell-based; conditions: SB408124 1 uM, OX treatment for 5 days
Protocol: To further investigate the role of OX in BAT differentiation, the effect of OX on the preadipocyte cell line HIB1 was evaluated. […] Expression of genes functioning in lipid metabolism and mitochondrial biogenesis was elevated while the anti-adipogenic factors […], Pref1, and Wnt10 were expressed at very low levels (FIG. 16).
HIB1 cells were stably transfected with lentivirus over-expressing orexin (Len-OX) and compared to vector controls in the absence or presence of exogenous OX (100 nM), Cells were cultured for 7 days in the absence of differentiation medium and stained with Oil Red O. By day 6 of adipogenic differentiation, orexin-expressing cells had undergone normal BAT differentiation as scored by lipid accumulation.
Brown fat morphological defects seen in both adult and newborn OXR1 KO mice were similar to those observed in OX KO mice. […] To examine the cellular and molecular consequences of OXR1 depletion, lentiviral vectors were used to express a short hairpin (sh) shRNA targeting OXR1 (shOXR1; Open Biosystems, Inc., catalog no. RMM4431-98766481) or a scrambled shRNA control (Open Biosystems, Inc., catalog no. RHS4346) in HIB1 mesenchymal cells. […] After 5 days of differentiation, cultures expressing the scrambled shRNA control had undergone brown fat differentiation as scored by Oil Red O staining and shown in FIG. 18. […]

[1] = test system: primary brown preadipocytes; assay: Differentiation of primary brown preadipocytes (Oil Red O); type: cell-based, mice; conditions: 3 days BMP7 or 100 nM OX, then adipogenic medium
Text: To assess differentiation of primary brown adipocytes, iBAT preadipocytes were isolated from 1-day-old mice and then differentiated in the presence of OX. Differentiation was confirmed by Oil Red O staining which visualizes lipid accumulation (FIG. 7). […] Taken together. OX activates a full program of brown fat adipogenesis by suppressing adipogenic inhibitors, including BAT regulators, elevating mitochondrial biogenesis and oxygen consumption, and inducing uncoupled respiration.
To investigate whether lack of OXR1 impaired BAT differentiation potential, primary brown preadipocytes from OXR1 knockout mice were isolated and differentiated. Generation of wild-type primary brown preadipocyte cell lines was derived from newborn wild-type mice as described previously by Klein et al. (Bioessays, 24: 382-388, 2002), which is hereby incorporated by reference in its entirety. Brown preadipocytes isolated from C57BL-6 mice served as positive control. All cell lines were maintained in Dulbecco's modified […] medium (DMEM), high glucose, supplemented with 10% FBS at 37° C. in a 5% CO2 environment. To induce adipogenesis, the cells were treated for 3 days with either BMP7 or 100 nM OX, at which time they were confluent. Cells were then incubated in adipogenic medium containing 0.125 mM indomethaein, […] dexamethazone, and […] 3-isobutyl-1-methyxanthine (IBMX) supplemented by 20 nM insulin as described by Tseng et al., (Nature, 454: 1000-1004, 2008) which is hereby incorporated by reference in its entirety.

Molecule: CC[C@H]1/C=C/C=C/C[C@@H](C)[C@H](O)[C@@](C)(O)C(=O)[C@@H](C)[C@H](O)[C@@H](C)C(=O)[C@@H](C)[C@H](O)[C@@H](C)/C=C/C(=O)O[C@@H]2[C@H](C)[C@H](CC1)O[C@]1(CC[C@H](C)[C@H](C[C@@H](C)O)O1)[C@H]2C [oligomycin, reference compound]
- respiration of unstimulated differentiated cells (C3H10T1/2 cells; absence of OX): completely suppressed respiration

Molecule: N#CC(C#N)=NNc1ccc(OC(F)(F)F)cc1 [FCCP, reference compound]
- oxygen consumption of unstimulated, differentiated cells, increase (C3H10T1/2 cells; in the presence of FCCP): 6 fold

Molecule: Cc1cc(NC(=O)Nc2ccc(N(C)C)cc2)c2cc(F)cc(F)c2n1 [SB408124, reference compound]
- OX-dependent mitochondrial biogenesis (HIB1 cells): blunted

B1: BMP-7: recombinant human BMP-7 (cat. No. 4579, BioVision), a potent inducer of BAT differentiation (protein, UniProt P18075 293-431, looked up)
Bone morphogenetic protein 7: STGSKQRSQNRSKTPKNQEALRMANVAENSSSDQRQACKKHELYVSFRDLGWQDWIIAPEGYAAYYCEGECAFPLNSYMNATNHAIVQTLVHFINPETVPKPCCAPTQLNAISVLYFDDSSNVILKKYRNMVVRACGCH
- oxygen consumption of treated cells in the presence of oligomycin (C3H10T1/2 cells; oligomycin): efficiently consumed oxygen
- differentiation of wild-type preadipocytes based on lipid accumulation [1]: enhanced differentiation
